# Assay results: patent publication US20160244437A1, “SUBSTITUTED PHENYLALANINE DERIVATIVES” (BAYER PHARMA AKTIENGESELLSCHAFT, priority 2013, published 2016)
# Where a name gives a salt, the structure may show the parent alone.
# Tests used:
# human and animal plasma = assay: Determination of anticoagulatory activity: activated partial thromboplastin time (aPTT) in plasma; settings: concentration of test substance which brings about a 1.5-fold extension of the aPTT; plasma in vitro, C.K. Prest kit
# Protocol: The anticoagulatory activity of the test substances is determined in vitro in human and animal plasma (for example mouse, rat, rabbit, pig and dog plasma). To this end, blood is drawn off in a mixing ratio of sodium citrate/blood of 1:9 using a 0.11 molar sodium citrate solution as receiver. Immediately after the blood has been drawn off, it is mixed thoroughly and centrifuged at about 4000 g for 15 minutes. The supernatant is pipetted off.
# The activated partial thromboplastin time (aPTT) is determined in the presence of varying concentrations of test substance or the corresponding solvent using a commercial test kit (C.K. Prest from Diagnostica Stago). The test compounds are incubated with the plasma and the PTT reagent (cephalin, kaolin) at 37° C. for 3 minutes. Coagulation is then started by addition of a 25 mM aqueous calcium chloride solution, and the time when coagulation occurs is determined. The concentration of test substance which brings about a 1.5-fold extension of the aPTT is determined.
# human factor XIa = molecular target: T1, human factor XIa (Homo sapiens, UniProt P03951); assay: Measurement of FXIa inhibition (fluorogenic peptide substrate Boc-Glu(OBzl)-Ala-Arg-AMC); format: biochemical; settings: factor XIa from Kordia 0.45 nM, 15 min pre-incubation, 30 min at 22° C., fluorescence
# T1 construct: purchased Kordia
# T1 sequence (P03951 388-625 limits assumed): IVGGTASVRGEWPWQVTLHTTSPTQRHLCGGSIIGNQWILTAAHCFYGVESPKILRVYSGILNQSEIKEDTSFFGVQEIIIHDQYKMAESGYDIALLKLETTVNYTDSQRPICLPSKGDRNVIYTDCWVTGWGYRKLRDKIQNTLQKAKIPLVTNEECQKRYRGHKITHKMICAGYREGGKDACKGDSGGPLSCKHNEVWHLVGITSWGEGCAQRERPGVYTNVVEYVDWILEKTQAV
# T1 sequence (P03951 19-387 partner limits assumed): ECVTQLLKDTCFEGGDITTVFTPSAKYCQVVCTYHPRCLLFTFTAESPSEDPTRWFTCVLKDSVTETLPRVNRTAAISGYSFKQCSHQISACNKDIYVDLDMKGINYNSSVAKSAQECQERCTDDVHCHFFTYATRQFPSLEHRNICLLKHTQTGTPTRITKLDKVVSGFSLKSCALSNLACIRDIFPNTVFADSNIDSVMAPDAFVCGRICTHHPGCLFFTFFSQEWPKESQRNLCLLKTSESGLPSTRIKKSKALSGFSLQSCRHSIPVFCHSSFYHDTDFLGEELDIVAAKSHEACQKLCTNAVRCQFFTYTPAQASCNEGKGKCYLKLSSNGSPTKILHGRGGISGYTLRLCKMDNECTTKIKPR
Compound,IC50 (human factor XIa) [nM],aPTT (human and animal plasma) [µmol/L]
"Cc1ccc(C[C@H](NC(=O)[C@H]2CC[C@H](CN)CC2)C(=O)Nc2ccc(-c3nnn[nH]3)cc2)cc1-c1cccc(C(=O)NC2CCN(C(C)C)CC2)c1 [Example 19, 5′-[(2S)-2-({[trans-4-(Aminomethyl)cyclohexyl]carbonyl}amino)-3-oxo-3-{[4-(1H-tetrazol-5-yl)phenyl]amino}propyl]-2′-methyl-N-[1-(propan-2-yl)piperidin-4-yl]biphenyl-3-carboxamide hydrochloride]",6,0.14
"COCCOCCOCCNC(=O)c1ccc(-c2cccc(C[C@H](NC(=O)[C@H]3CC[C@H](CN)CC3)C(=O)Nc3ccc(-c4nnn[nH]4)cc3)c2)c(C)c1 [Example 22, 3′-[(2S)-2-({[trans-4-(Aminomethyl)cyclohexyl]carbonyl}amino)-3-oxo-3-{[4-(1H-tetrazol-5-yl)phenyl]amino}propyl]-N-{2-[2-(2-methoxyethoxy)ethoxy]ethyl}-2-methylbiphenyl-4-carboxamide hydrochloride]",2.4,0.34
"CN1CCN(C(=O)c2cccc(-c3cccc(C[C@H](NC(=O)[C@H]4CC[C@H](CN)CC4)C(=O)Nc4ccc(-c5nnc(Cl)[nH]5)cc4)c3)c2)CC1 [Example 24, trans-4-(Aminomethyl)-N-[(2S)-1-{[4-(3-chloro-4H-1,2,4-triazol-5-yl)phenyl]amino}-3-{3′-[(4-methylpiperazin-1-yl)carbonyl]biphenyl-3-yl}-1-oxopropan-2-yl]cyclohexanecarboxamide hydrochloride]",4.3,0.15
"CN1CCN(C(=O)c2ccc(-c3cccc(C[C@H](NC(=O)[C@H]4CC[C@H](CN)CC4)C(=O)Nc4ccc(-c5nnc(Cl)[nH]5)cc4)c3)cc2)CC1 [Example 27, trans-4-(Aminomethyl)-N-[(2S)-1-{[4-(3-chloro-4H-1,2,4-triazol-5-yl)phenyl]amino}-3-{4′-[(4-methylpiperazin-1-yl)carbonyl]biphenyl-3-yl}-1-oxopropan-2-yl]cyclohexanecarboxamide hydrochloride]",4.7,0.3
"NC[C@H]1CC[C@H](C(=O)N[C@@H](Cc2cccc(-c3cccc(C(=O)NCCN4CCOCC4)c3)c2)C(=O)Nc2ccc(-c3nnn[nH]3)cc2)CC1 [Example 29, 3′-[(2S)-2-({[trans-4-(Aminomethyl)cyclohexyl]carbonyl}amino)-3-oxo-3-{[4-(1H-tetrazol-5-yl)phenyl]amino}propyl]-N-[2-(morpholin-4-yl)ethyl]biphenyl-3-carboxamide hydrochloride]",5.5,0.37
"CC(C)N1CCC(NC(=O)c2cccc(-c3cccc(C[C@H](NC(=O)[C@H]4CC[C@H](CN)CC4)C(=O)Nc4ccc(-c5nnc(Cl)[nH]5)cc4)c3)c2)CC1 [Example 30, 3′-[(2S)-2-({[trans-4-(Aminomethyl)cyclohexyl]carbonyl}amino)-3-{[4-(3-chloro-4H-1,2,4-triazol-5-yl)phenyl]amino}-3-oxopropyl]-N-[1-(propan-2-yl)piperidin-4-yl]biphenyl-3-carboxamide hydrochloride]",5.8,0.34
"CC(C)N1CCC(NC(=O)c2cccc(-c3cccc(C[C@H](NC(=O)[C@H]4CC[C@H](CN)CC4)C(=O)Nc4ccc(-c5nnn[nH]5)cc4)c3)c2)CC1 [Example 32, 3′-[(2S)-2-({[trans-4-(Aminomethyl)cyclohexyl]carbonyl}amino)-3-oxo-3-{[4-(1H-tetrazol-5-yl)phenyl]amino}propyl]-N-[1-(propan-2-yl)piperidin-4-yl]biphenyl-3-carboxamide hydrochloride]",6.8,0.18
"Cc1ccc(S(=O)(=O)N2CCCC2)cc1-c1cccc(C[C@H](NC(=O)[C@H]2CC[C@H](CN)CC2)C(=O)Nc2ccc(-c3noc(=O)[nH]3)cc2)c1 [Example 36, trans-4-(Aminomethyl)-N-[(2S)-3-[2′-methyl-5′-(pyrrolidin-1-ylsulphonyl)biphenyl-3-yl]-1-oxo-1-{[4-(5-oxo-4,5-dihydro-1,2,4-oxadiazol-3-yl)phenyl]amino}propan-2-yl]cyclohexanecarboxamide hydrochloride]",2.2,0.12
"NC[C@H]1CC[C@H](C(=O)N[C@@H](Cc2cccc(-c3ccc(C(=O)NCCN4CCCCC4)cc3)c2)C(=O)Nc2ccc(-c3nnn[nH]3)cc2)CC1 [Example 37, 3′-[(2S)-2-({[trans-4-(Aminomethyl)cyclohexyl]carbonyl}amino)-3-oxo-3-{[4-(1H-tetrazol-5-yl)phenyl]amino}propyl]-N-[2-(piperidin-1-yl)ethyl]biphenyl-4-carboxamide hydrochloride]",5.6,0.19
"CCN(CC)CCNC(=O)c1cccc(-c2cccc(C[C@H](NC(=O)[C@H]3CC[C@H](CN)CC3)C(=O)Nc3ccc(-c4nnc(Cl)[nH]4)cc3)c2)c1 [Example 40, 3′-[(2S)-2-({[trans-4-(Aminomethyl)cyclohexyl]carbonyl}amino)-3-{[4-(3-chloro-4H-1,2,4-triazol-5-yl)phenyl]amino}-3-oxopropyl]-N-[2-(diethylamino)ethyl]biphenyl-3-carboxamide hydrochloride]",8.3,0.19

# Now from value to compound, other results behind:
IC50 (human factor XIa) [nM],Compound,aPTT (human and animal plasma) [µmol/L]
1.8,"COCCOCCOCCNC(=O)c1ccc(C)c(-c2cccc(C[C@H](NC(=O)[C@H]3CC[C@H](CN)CC3)C(=O)Nc3ccc(-c4nnn[nH]4)cc3)c2)c1 [Example 20, 3′-[(2S)-2-({[trans-4-(Aminomethyl)cyclohexyl]carbonyl}amino)-3-oxo-3-{[4-(1H-tetrazol-5-yl)phenyl]amino}propyl]-N-{2-[2-(2-methoxyethoxy)ethoxy]ethyl}-6-methylbiphenyl-3-carboxamide hydrochloride]",0.24
2.3,"Cc1ccc(C(=O)NCCOCCOCCO)cc1-c1cccc(C[C@H](NC(=O)[C@H]2CC[C@H](CN)CC2)C(=O)Nc2ccc(-c3nnn[nH]3)cc2)c1 [Example 21, 3′-[(2S)-2-({[trans-4-(Aminomethyl)cyclohexyl]carbonyl}amino)-3-oxo-3-{[4-(1H-tetrazol-5-yl)phenyl]amino}propyl]-N-{2-[2-(2-hydroxyethoxy)ethoxy]ethyl}-6-methylbiphenyl-3-carboxamide hydrochloride]",0.19
7,"CN1CCN(C(=O)c2cccc(-c3cccc(C[C@H](NC(=O)[C@H]4CC[C@H](CN)CC4)C(=O)Nc4ccc(-c5nnn[nH]5)cc4)c3)c2)CC1 [Example 31, trans-4-(Aminomethyl)-N-[(2S)-3-{3′-[(4-methylpiperazin-1-yl)carbonyl]biphenyl-3-yl}-1-oxo-1-{[4-(1H-tetrazol-5-yl)phenyl]amino}propan-2-yl]cyclohexanecarboxamide hydrochloride]",0.36
7.6,"Cc1cc(C(=O)NC2C3CNCC32)ccc1-c1cccc(C[C@H](NC(=O)C2CCC(CN)CC2)C(=O)Nc2ccc(-c3nnn[nH]3)cc2)c1 (stereo partly drawn) [Example 33, 3′-[(2S)-2-({[trans-4-(Aminomethyl)cyclohexyl]carbonyl}amino)-3-oxo-3-{[4-(1H-tetrazol-5-yl)phenyl]amino}propyl]-N-(3-azabicyclo[3.1.0]hex-6-yl)-2-methylbiphenyl-4-carboxamide hydrochloride]",0.08
8.6,"CCN(CC)CCNC(=O)c1cccc(-c2cccc(C[C@H](NC(=O)[C@H]3CC[C@H](CN)CC3)C(=O)Nc3ccc(-c4nnn[nH]4)cc3)c2)c1 [Example 34, 3′-[(2S)-2-({[trans-4-(Aminomethyl)cyclohexyl]carbonyl}amino)-3-oxo-3-{[4-(1H-tetrazol-5-yl)phenyl]amino}propyl]-N-[2-(diethylamino)ethyl]biphenyl-3-carboxamide hydrochloride]",0.26
4.8,"NC[C@H]1CC[C@H](C(=O)N[C@@H](Cc2cccc(-c3cc(C(N)=O)ccc3Cl)c2)C(=O)Nc2ccc(-c3nnn[nH]3)cc2)CC1 [Example 38, 3′-[(2S)-2-({[trans-4-(Aminomethyl)cyclohexyl]carbonyl}amino)-3-oxo-3-{[4-(1H-tetrazol-5-yl)phenyl]amino}propyl]-6-chlorobiphenyl-3-carboxamide hydrochloride]",0.2
8.9,"CN(C)CCNC(=O)c1cccc(-c2cccc(C[C@H](NC(=O)[C@H]3CC[C@H](CN)CC3)C(=O)Nc3ccc(-c4nnn[nH]4)cc3)c2)c1 [Example 39, 3′-[(2S)-2-({[trans-4-(Aminomethyl)cyclohexyl]carbonyl}amino)-3-oxo-3-{[4-(1H-tetrazol-5-yl)phenyl]amino}propyl]-N-[2-(dimethylamino)ethyl]biphenyl-3-carboxamide hydrochloride]",0.22
8.4,"NC[C@H]1CC[C@H](C(=O)N[C@@H](Cc2cccc(-c3ccc(C(=O)NCCN4CCCC4)cc3)c2)C(=O)Nc2ccc(-c3nnn[nH]3)cc2)CC1 [Example 41, 3′-[(2S)-2-({[trans-4-(Aminomethyl)cyclohexyl]carbonyl}amino)-3-oxo-3-{[4-(1H-tetrazol-5-yl)phenyl]amino}propyl]-N-[2-(pyrrolidin-1-yl)ethyl]biphenyl-4-carboxamide hydrochloride]",0.32
